Data: patent US6410792B1, “Amide derivatives and methods for using the same as selective neuropeptide Y receptor antagonists” (Bayer Corporation, priority 1997, dated 2002)
Where a name gives a salt, the structure may show the parent alone. Read-outs that look alike come from different tables or passages of the source.

Legend:
Human NPY5 receptor = target: T1, Human NPY5 receptor (Homo sapiens, UniProt Q15761); assay: Human NPY5 receptor binding assay ([125I]PYY, membrane protein)
T1 sequence (Q15761 1-445): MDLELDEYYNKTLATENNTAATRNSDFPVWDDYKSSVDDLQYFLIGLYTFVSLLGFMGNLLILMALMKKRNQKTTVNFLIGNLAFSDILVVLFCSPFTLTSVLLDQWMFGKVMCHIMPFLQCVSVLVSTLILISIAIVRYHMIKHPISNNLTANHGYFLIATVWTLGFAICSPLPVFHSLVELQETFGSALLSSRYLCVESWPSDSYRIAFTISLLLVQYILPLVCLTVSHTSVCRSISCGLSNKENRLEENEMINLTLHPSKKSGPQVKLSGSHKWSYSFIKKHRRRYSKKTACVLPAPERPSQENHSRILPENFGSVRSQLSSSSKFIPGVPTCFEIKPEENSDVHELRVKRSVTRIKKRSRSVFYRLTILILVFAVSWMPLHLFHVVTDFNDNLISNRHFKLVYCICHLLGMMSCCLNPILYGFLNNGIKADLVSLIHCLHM
Summary of the method: (§1)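 Membrane protein was incubated with 75-100 pM porcine [125I]PYY and test compound for 2 hours at room temperature with constant mixing in pH 7.4 Tris buffer containing NaCl, KCl, CaCl2, MgSO4, 0.1% BSA and bacitracin. Nonspecific binding was defined with 1 μM PYY. Bound radioactivity was counted after filtration.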

human Y4/PP1 receptor = human Y4/PP1 receptor (Homo sapiens, UniProt P50391); assay: Human Y4/PP1 receptor binding assay ([125I]human PP, membrane protein); details: [125I]human PP, membrane protein; read-out: hNPY4 IC50
Summary of the method: (§2)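 Filtration binding with membrane protein and drug dilution, 2 h at room temperature with mixing, radioactivity counted by gamma or scintillation. Y2: 25 pM [125I]PYY in Krebs-Ringer bicarbonate pH 7.4 with 0.01% BSA, nonspecific by 1 μM NPY. Y4/PP1: 50 pM [125I]hPP in HEPES-buffered saline pH 7.4 with protease inhibitors and 0.3% BSA, nonspecific by 1 μM hPP.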

Rat NPY5 receptor [1] = target: T2, Rat NPY5 receptor (Rattus norvegicus, UniProt Q63634); assay: Rat NPY5 receptor binding assay ([125I]PYY, membrane protein)
T2 sequence (Q63634 1-445): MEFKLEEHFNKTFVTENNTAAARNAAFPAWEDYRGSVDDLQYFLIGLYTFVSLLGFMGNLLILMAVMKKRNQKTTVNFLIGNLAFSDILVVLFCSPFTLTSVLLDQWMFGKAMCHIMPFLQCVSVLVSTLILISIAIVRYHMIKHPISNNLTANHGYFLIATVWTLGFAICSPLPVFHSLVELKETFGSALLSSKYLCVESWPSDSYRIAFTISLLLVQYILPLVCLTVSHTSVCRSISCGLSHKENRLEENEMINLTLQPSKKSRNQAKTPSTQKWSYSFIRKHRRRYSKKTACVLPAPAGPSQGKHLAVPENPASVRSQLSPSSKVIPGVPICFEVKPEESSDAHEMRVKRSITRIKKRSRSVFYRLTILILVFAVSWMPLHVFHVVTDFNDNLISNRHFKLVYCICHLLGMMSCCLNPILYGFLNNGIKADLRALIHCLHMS
Summary of the method: as §1

Rat NPY5 receptor [2] = target: T2, Rat NPY5 receptor; assay: Rat NPY5 cyclase assay (in vitro functional assay, forskolin-stimulated adenylate cyclase, cAMP); type: cell-based; details: 10 μM, percentage of forskolin-stimulated adenylate cyclase; for activity at 10 µM: 20 min, read-out: rNPY5 % FSAC (10 μM)
Protocol: D. Rat NYP5 Cyclase Assay (In Vitro Functional Assay)
Cells stably expressing the rat NPY5 receptor are resuspended in serum-free DMEM containing 10 mM HEPES (pH 7.4) and 1 mM isobutylmethylxanthine (IBMX). […] forskolin and drug dilution are then added to the cells. After a 20 minute incubation of the samples at 37° C, the assay is stopped by placing the samples in boiling water for 3 minutes. The cAMP produced in each sample is quantitated with a radioimmunoassay kit (NEN DuPont). Data are expressed as a percentage of forskolin-stimulated adenylate cyclase.

Y2 receptor = target: T3, Y2 receptor (Homo sapiens, UniProt P49146); assay: Y2 receptor binding assay ([125I]PYY, membrane protein); details: [125I]PYY, membrane protein; read-out: hNPY2 IC50
T3 sequence (P49146 1-381): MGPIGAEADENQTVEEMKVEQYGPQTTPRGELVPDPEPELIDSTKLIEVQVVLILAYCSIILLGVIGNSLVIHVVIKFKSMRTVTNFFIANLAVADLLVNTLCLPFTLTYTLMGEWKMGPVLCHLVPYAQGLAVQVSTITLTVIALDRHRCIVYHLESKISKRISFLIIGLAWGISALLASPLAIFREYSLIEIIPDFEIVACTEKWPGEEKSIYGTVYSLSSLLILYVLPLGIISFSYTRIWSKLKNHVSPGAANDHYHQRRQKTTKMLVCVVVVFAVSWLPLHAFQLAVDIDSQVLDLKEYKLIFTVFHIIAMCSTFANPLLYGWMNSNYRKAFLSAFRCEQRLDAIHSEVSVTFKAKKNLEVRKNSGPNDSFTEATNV
Summary of the method: as §2

Human NPY1 receptor = target: T4, Human NPY1 receptor (Homo sapiens, UniProt P25929); assay: Human NPY1 receptor binding assay ([125I]PYY, SK-N-MC cells); details: [125I]PYY, SK-N-MC cells; read-out: hNPYI IC50
T4 construct: host or cells: SK-N-MC cells
T4 sequence (P25929 1-384): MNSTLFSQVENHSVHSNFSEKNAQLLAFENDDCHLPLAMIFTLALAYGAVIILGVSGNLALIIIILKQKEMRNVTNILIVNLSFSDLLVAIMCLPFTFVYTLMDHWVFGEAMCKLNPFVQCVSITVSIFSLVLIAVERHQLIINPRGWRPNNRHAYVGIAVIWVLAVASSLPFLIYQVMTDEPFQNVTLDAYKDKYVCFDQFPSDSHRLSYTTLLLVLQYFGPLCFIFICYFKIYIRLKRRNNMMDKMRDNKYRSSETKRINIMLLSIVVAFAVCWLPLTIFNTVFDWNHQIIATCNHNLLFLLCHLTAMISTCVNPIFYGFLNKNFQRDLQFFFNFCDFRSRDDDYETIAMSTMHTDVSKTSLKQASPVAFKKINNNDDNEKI
Summary of the method: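 Confluent SK-N-MC cells preincubated 30 min at room temperature in serum-free DMEM/25 mM HEPES pH 7.3 with BSA, bacitracin and PMSF, then incubated 3 h at room temperature with compound and ~50 pM [125I]PYY. Nonspecific binding defined with 1 μM NPY; bound radioactivity counted after Triton X-100 lysis.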

[3] = [125I]PYY, read-out: hNPY5 IC50
[4] = [125I]PYY, read-out: rNPY5 IC50

human Y4/PP1 receptor, sequence (P50391 whole entry): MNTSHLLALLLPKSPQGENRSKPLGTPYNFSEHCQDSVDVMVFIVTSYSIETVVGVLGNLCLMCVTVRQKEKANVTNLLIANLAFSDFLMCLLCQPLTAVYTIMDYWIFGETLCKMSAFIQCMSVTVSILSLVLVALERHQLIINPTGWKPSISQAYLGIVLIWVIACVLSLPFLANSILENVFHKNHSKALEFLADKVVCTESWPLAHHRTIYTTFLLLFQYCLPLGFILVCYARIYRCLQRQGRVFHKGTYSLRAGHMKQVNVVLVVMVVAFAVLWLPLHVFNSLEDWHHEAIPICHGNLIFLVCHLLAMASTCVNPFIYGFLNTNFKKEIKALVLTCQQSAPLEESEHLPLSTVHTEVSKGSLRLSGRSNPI

| Structure (SMILES) | IC50 (Human NPY5 receptor; [3]) | IC50 (human Y4/PP1 receptor) | IC50 (Rat NPY5 receptor [1]; [4]) | activity at 10 µM (Rat NPY5 receptor [2]) | IC50 (Y2 receptor) | IC50 (Human NPY1 receptor) | IC50 (Human NPY5 receptor; hNPY5 IC50, [125I]PYY) | IC50 (Rat NPY5 receptor [1]; rNPY5 IC50, [125I]PYY) | rNPY5 % FSAC (10 μM) (Rat NPY5 receptor [2]) |
| --- | --- | --- | --- | --- | --- | --- | --- | --- | --- |
| O=C(CN1CCCC1C(O)(c1ccccc1)c1ccccc1)Nc1ccc(C2CCCCC2)cc1 (stereo not drawn) [Compound 296, N-(4-Cyclohexyl-phenyl)-2-[2-(hydroxy-diphenyl-methyl)-pyrrolidin-1-yl]-acetamide; compound with oxalic acid] | 48 nM | > 5000 nM | 43 nM | 98% | > 5000 nM | > 5000 nM | – | – | – |
| NC(=O)C1CCCN1CC(=O)Nc1ccc(C2CCCCC2)cc1 (stereo not drawn) [Compound 297, 1-[(4-Cyclohexyl-phenylcarbamoyl)-methyl]-pyrrolidin-2-carboxylic acid amide; hydrochloride] | 32 nM | > 5000 nM | 45 nM | 103% | > 5000 nM | > 5000 nM | – | – | – |
| Cc1ccc(C2(O)CCN(CC(=O)Nc3ccc(C4CCCCC4)cc3)CC2)cc1 [Compound 298, N-(4-Cyclohexyl-phenyl)-2-(4-hydroxy-4-p-tolyl-piperidin-1-yl)-acetamide; hydrochloride] | – | > 5000 nM | – | 103% | > 5000 nM | > 5000 nM | 30 nM | 44 nM | – |
| O=C(CN1CCN(c2ccccc2Cl)CC1)Nc1ccc(C2CCCCC2)cc1.O=C(O)C(=O)O [Compound 299] | 140 nM | > 5000 nM | 160 nM | – | > 5000 nM | > 5000 nM | – | – | 103% |
| O=C(CN1CCC(O)(Cc2ccccc2)CC1)Nc1ccc(C2CCCCC2)cc1 [Compound 314, 2-(4-Benzyl-4-hydroxy-piperidin-1-yl)-N-(4-cyclohexyl-phenyl)-acetamide; hydrochloride] | 130 nM | > 5000 nM | 100 nM | 110% | > 5000 nM | > 5000 nM | – | – | – |
| CCc1cc(Br)c(NC(=O)CN2CCC(n3c(=O)[nH]c4ccccc43)CC2)c(Br)c1 [Compound 330, N-(2,6-Dibromo-4-ethyl-phenyl)-2-[4-(2-oxo-2,3-dihydrobenzoimidazol-1-yl)-piperidin-1-yl]-acetamide, reference compound] | 440 nM | > 5000 nM | 260 nM | 99% | > 5000 nM | > 5000 nM | – | – | – |
| O=C(CN1CCC(n2c(=O)[nH]c3ccccc32)CC1)Nc1ccc(Br)c(Cl)c1 [Compound 342, N-(4-Bromo-3-chloro-phenyl)-2-[4-(2-oxo-2,3-dihydro-benzoimidazol-1-yl)-piperidin-1-yl]-acetamide, reference compound] | 276 nM | > 5000 nM | 370 nM | 105% | > 5000 nM | > 5000 nM | – | – | – |
| O=C(CN1CCC(n2c(=O)[nH]c3ccccc32)CC1)Nc1ccc(O)cc1 [Compound 345, N-(4-Hydroxy-phenyl)-2-[4-(2-oxo-2,3-dihydro-benzoimidazol-1-yl)-piperidin-1-yl]-acetamide, reference compound] | 2900 nM | > 5000 nM | 3300 nM | 93% | > 5000 nM | > 5000 nM | – | – | – |
| CCOc1ccc(NC(=O)CN2CCC(n3c(=O)[nH]c4ccccc43)CC2)c2ccccc12 [Compound 346, N-(4-Ethoxy-naphthalen-1-yl)-2-[4-(2-oxo-2,3-dihydro-benzoimidazol-1-yl)-piperidin-1-yl]-acetamide, reference compound] | 81 nM | > 5000 nM | 63 nM | 105% | > 5000 nM | > 5000 nM | – | – | – |
| O=C(CN1CCC(n2c(=O)[nH]c3ccccc32)CC1)Nc1ccc(N=Nc2ccccc2)cc1 [Compound 349, 2-[4-(2-Oxo-2,3-dihydro-benzoimidazol-1-yl)-piperidin-1-yl]-N-(4-phenylazo-phenyl)-acetamide, reference compound] | 138 nM | > 5000 nM | 165 nM | 100% | > 5000 nM | > 5000 nM | – | – | – |
| O=C(CN1CCC(n2c(=O)[nH]c3ccccc32)CC1)Nc1ccc(Oc2ccccc2)cc1 [Compound 352, 2-[4-(2-Oxo-2,3-dihydro-benzoimidazol-1-yl)-piperidin-1-yl]-N-(4-phenoxy-phenyl)-acetamide, reference compound] | 53 nM | > 5000 nM | 62.8 nM | 90% | > 5000 nM | > 5000 nM | – | – | – |
| CC(=O)c1ccc(NC(=O)CN2CCC(n3c(=O)[nH]c4ccccc43)CC2)cc1 [Compound 354, N-(4-Acetyl-phenyl)-2-[4-(2-oxo-2,3-dihydro-benzoimidazol-1-yl)-piperidin-1-yl]-acetamide, reference compound] | 143 nM | > 5000 nM | 136 nM | 98% | > 5000 nM | > 5000 nM | – | – | – |
| O=C(CN1CCC(n2c(=O)[nH]c3ccccc32)CC1)Nc1ccc(C(F)(F)F)cc1 [Compound 356, 2-[4-(2-Oxo-2,3-dihydro-benzoimidazol-1-yl)-piperidin-1-yl]-N-(4-trifluoromethyl-phenyl)-acetamide, reference compound] | 259 nM | > 5000 nM | 271 nM | 105% | > 5000 nM | > 5000 nM | – | – | – |
| O=C(CN1CCC(n2c(=O)[nH]c3ccccc32)CC1)Nc1ccc([N+](=O)[O-])c(Cl)c1 [Compound 357, N-(3-Chloro-4-nitro-phenyl)-2-[4-(2-oxo-2,3-dihydro-benzoimidazol-1-yl)-piperidin-1-yl]-acetamide, reference compound] | 239 nM | > 5000 nM | 229 nM | 112% | > 5000 nM | > 5000 nM | – | – | – |
